Measured values published in PubChem BioAssay (NCI).
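Assay format: 96-well plates, 48-hour exposure. TGI is the concentration that stops growth completely.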

How the values were obtained:
Experiment in all cases: NCI tumour cell line growth inhibition, 48 h
MDA-MB-435 = tested on: MDA-MB-435
CCRF-CEM leukemia = tested on: CCRF-CEM leukemia
A498 renal = tested on: A498 renal
KM12 colon = tested on: KM12 colon
NCI-H522 lung = tested on: NCI-H522 lung
U251 CNS = tested on: U251 CNS
OVCAR-4 ovarian = tested on: OVCAR-4 ovarian
CAKI-1 renal = tested on: CAKI-1 renal
TK-10 renal = tested on: TK-10 renal
SN12C renal = tested on: SN12C renal
NCI-H23 lung = tested on: NCI-H23 lung
LOX IMVI melanoma = tested on: LOX IMVI melanoma
SF-539 CNS = tested on: SF-539 CNS
OVCAR-8 ovarian = tested on: OVCAR-8 ovarian
MCF7 breast = tested on: MCF7 breast
UO-31 renal = tested on: UO-31 renal
SK-MEL-2 melanoma = tested on: SK-MEL-2 melanoma
SNB-19 CNS = tested on: SNB-19 CNS
A549 NSCLC = tested on: A549 NSCLC
NCI-H460 lung = tested on: NCI-H460 lung
SK-OV-3 ovarian = tested on: SK-OV-3 ovarian
HCT-116 colon = tested on: HCT-116 colon
MDA-MB-231 breast = tested on: MDA-MB-231 breast
NCI/ADR-RES ovarian = tested on: NCI/ADR-RES ovarian
UACC-62 melanoma = tested on: UACC-62 melanoma
IGROV1 ovarian = tested on: IGROV1 ovarian
786-0 renal = tested on: 786-0 renal
SF-268 CNS = tested on: SF-268 CNS
HCC-2998 colon = tested on: HCC-2998 colon
OVCAR-5 ovarian = tested on: OVCAR-5 ovarian
M14 melanoma = tested on: M14 melanoma
HT29 colon = tested on: HT29 colon
SK-MEL-28 melanoma = tested on: SK-MEL-28 melanoma
SK-MEL-5 melanoma = tested on: SK-MEL-5 melanoma
SR leukemia = tested on: SR leukemia
EKVX NSCLC = tested on: EKVX NSCLC
MDA-N = tested on: MDA-N
MOLT-4 leukemia = tested on: MOLT-4 leukemia
HCT-15 colon = tested on: HCT-15 colon
COLO 205 colon = tested on: COLO 205 colon
HOP-62 NSCLC = tested on: HOP-62 NSCLC
NCI-H226 lung = tested on: NCI-H226 lung
DU-145 prostate = tested on: DU-145 prostate
HS 578T breast = tested on: HS 578T breast
RXF 393 renal = tested on: RXF 393 renal
SW-620 colon = tested on: SW-620 colon
BT-549 breast = tested on: BT-549 breast
K-562 leukemia = tested on: K-562 leukemia
PC-3 prostate = tested on: PC-3 prostate
ACHN renal = tested on: ACHN renal
MALME-3M melanoma = tested on: MALME-3M melanoma
SF-295 CNS = tested on: SF-295 CNS
UACC-257 melanoma = tested on: UACC-257 melanoma
OVCAR-3 ovarian = tested on: OVCAR-3 ovarian
T-47D breast = tested on: T-47D breast
HOP-92 NSCLC = tested on: HOP-92 NSCLC
HL-60(TB) leukemia = tested on: HL-60(TB) leukemia
SNB-75 CNS = tested on: SNB-75 CNS

Measured: TGI

Cc1cc(S(=O)(=O)n2cc[nH]c2=O)c(SCCCN(C)C)cc1Cl
not listed: HOP-92 NSCLC | HL-60(TB) leukemia | SNB-75 CNS
> 100 µM: all other assays above

COC(=O)C12C3C4(C(=O)OC)C1C1(C(=O)OC)C2C3(C(=O)OC)C41C(=O)N(C(C)C)C(C)C (stereo not given)
not listed: SK-OV-3 ovarian | NCI-H226 lung | MALME-3M melanoma
> 100 µM: all other assays above
